Measured values taken from patent US10106516B2, “PDE10 inhibitors and related compositions and methods” (Omeros Corporation, priority 2010, dated 2018).

target: T1, PDE10 (Homo sapiens, UniProt Q9Y233); assay: PDE10 biochemical assay (two-step Thompson and Appleman method or SPA); settings: PDE10 inhibition
T1 construct: made in house; host or cells: Sf9 insect cells (baculovirus)
Description: In short, cAMP is spiked with (^3H)cAMP and incubated with PDE10 and various concentrations of a compound of structure (I). After the appropriate incubation time, the reaction is terminated by heating. The mixture is then subjected to treatment with snake venom phosphatase. The phosphatase hydrolyzes any AMP in the mixture, but leaves unreacted cAMP intact. Thus, by separating cAMP from the mixture and determining its concentration (by radiography), the percent of inhibition can be determined. IC50 values can be calculated by performing the experiment at several concentrations using standard graphical means. A detailed description of the actual technique used for IC50 assays as set forth in following Examples.
The phosphodiesterase (PDE) assay was performed using recombinant human PDE 1A3, 2A3, 3 catalytic region, 4 catalytic region, 5 catalytic region, 7A, 8A, 9A2, 10A1 and 11A1 enzymes expressed in a baculoviral system using Sf9 cells. PDE activity was measured using a modification of the two-step method of Thompson and Appleman described above which was adapted for 96 well plate format. […] The final assay volume was 110 μl with assay buffer (10 mM MgCl2; 40 mM Tris.HCl; pH 7.4). Reactions were initiated with enzyme and incubated with (^3H)-substrate and substance for 20 minutes at 30° C. The reaction was terminated by denaturing the enzyme (heating the reaction to 70° C. for 2 minutes). The reaction was then cooled at 4° C. for 10 minutes before the addition of snake venom (Crotalus atrox, 0.2 mg/ml) for 10 minutes at 30° C., thus allowing non-specific hydrolysis of the tritiated substrate. Separation of the remaining unhydrolysed cyclic nucleotide was achieved by a batch binding of the mixture to activated Dowex (200 μl) anion exchange resin. The anion exchange resin bound the charged nucleotides, leaving only hydrolysed (^3H) substrate in the soluble fraction. The soluble fraction (50 μl) was then added to microscint-20 (200 μl) and counted on a Top Count Plate reader. Radioactivity units were plotted against inhibitor concentration and IC50 values obtained using Graph Pad Prism software.
Alternatively, phosphodiesterase activity was measured by scintillation proximity assay (SPA) with [^3H]-cGMP as substrate. Purified PDE10 was diluted and stored in 25 mM Tris-Cl (pH 8.0)/100 mM NaCl/0.05% Tween 20/50% glycerol/3 mM DTT. Assays contained (final concentrations): 50 mM Tris-Cl (pH 7.5)/8.3 mM MgCl2/1.7 mM EGTA/0.5 mg/ml BSA/5% DMSO and 2 ng PDE10 in a final volume of 0.1 mL. Inhibition was evaluated at 8 concentrations in duplicate. Reactions were initiated by addition of enzyme and were terminated after 20 minutes at 30° C. by the addition of 50 μl of SPA beads containing Zn^++. The mixture was shaken, allowed to settle for 3 hours, and counted in a Wallac plate counter. Results (net cpm) were fitted to a four parameter logistic model using Excel Solver®.

T1 sequence (Q9Y233 1-779 isoform Q9Y233-1): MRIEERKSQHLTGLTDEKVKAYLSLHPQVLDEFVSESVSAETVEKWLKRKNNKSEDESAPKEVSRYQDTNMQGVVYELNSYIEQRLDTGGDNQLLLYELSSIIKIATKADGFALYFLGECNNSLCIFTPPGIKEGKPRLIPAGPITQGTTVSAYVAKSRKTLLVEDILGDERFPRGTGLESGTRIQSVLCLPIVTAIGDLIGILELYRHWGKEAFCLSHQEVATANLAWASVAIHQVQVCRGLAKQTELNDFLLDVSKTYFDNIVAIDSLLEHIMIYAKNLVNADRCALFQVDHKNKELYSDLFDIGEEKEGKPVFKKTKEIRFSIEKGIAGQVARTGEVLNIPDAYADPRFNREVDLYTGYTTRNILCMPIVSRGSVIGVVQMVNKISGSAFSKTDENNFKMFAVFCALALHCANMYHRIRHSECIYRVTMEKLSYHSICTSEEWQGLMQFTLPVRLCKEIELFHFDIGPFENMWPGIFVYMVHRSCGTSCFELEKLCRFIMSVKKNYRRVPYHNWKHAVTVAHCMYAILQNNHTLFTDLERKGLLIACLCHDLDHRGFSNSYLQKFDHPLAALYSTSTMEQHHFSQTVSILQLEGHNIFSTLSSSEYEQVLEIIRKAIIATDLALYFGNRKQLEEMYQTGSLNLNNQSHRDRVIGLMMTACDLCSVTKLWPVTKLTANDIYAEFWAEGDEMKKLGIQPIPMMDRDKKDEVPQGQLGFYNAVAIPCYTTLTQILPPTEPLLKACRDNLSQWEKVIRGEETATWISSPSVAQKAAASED

SMILES	IC50
COc1cc(-c2nc(C(=O)C(OC)c3ccc(N4CCOCC4)cc3)oc2C)cc(OC)c1Br (centres unmarked) [Compound 55-1, 1-(4-(4-Bromo-3,5-Dimethoxyphenyl)-5-Methyloxazol-2-Yl)-2-Methoxy-2-(4-Morpholinophenyl)Ethanone]	≤ 1 µM
COc1cc(-c2coc(C(=O)C(OC)c3cccc(N4CCOCC4)c3)n2)cc(OC)c1Br (centres unmarked) [Compound 65-1]	≤ 1 µM
COc1cc(-c2ccc(C(=O)C(OC)c3ccc(-c4nnc(C)o4)cc3)o2)cc(OC)c1C#N (centres unmarked) [Compound 65-12]	≤ 1 µM
COc1cc(-c2coc(C(=O)C(OC)c3ccc(-n4cncn4)cc3)n2)cc(OC)c1Br (centres unmarked) [Compound 65-2]	≤ 1 µM
COc1cc(-c2coc(C(=O)C(OC)c3ccc(-n4cccn4)cc3)n2)cc(OC)c1Br (centres unmarked) [Compound 5-1, 2-(4-(1H-Pyrazol-1-Yl)Phenyl)-1-(4-(4-Bromo-3,5-Dimethoxyphenyl)Oxazol-2-Yl)-2-Methoxyethanone]	≤ 1 µM
CCOC(C(=O)c1ccc(-c2cc(OC)c(Br)c(OC)c2)o1)c1ccc(N2CCOCC2)cc1 (centres unmarked) [Compound 38-1, 1-(5-(4-Bromo-3,5-Dimethoxyphenyl)Furan-2-Yl)-2-Ethoxy-2-(4-Morpholinophenyl)Ethanone]	≤ 1 µM
COc1cc(-c2ccc(C(=O)C(OC)c3ccc(-c4csc(C)n4)cc3)o2)cc(OC)c1Br (centres unmarked) [Compound 35-1, 1-(5-(4-Bromo-3,5-Dimethoxyphenyl)Furan-2-Yl)-2-Methoxy-2-(4-(2-Methylthiazol-4-Yl)Phenyl)Ethanone]	≤ 1 µM
COc1cc(-c2ccc(C(=O)C(OC)c3cccc4ncccc34)o2)cc(OC)c1Br (centres unmarked) [Compound 20-1, 1-(5-(4-Bromo-3,5-Dimethoxyphenyl)Furan-2-Yl)-2-Methoxy-2-(Quinolin-5-Yl)Ethanone]	≤ 1 µM
COc1cc(-c2ccc(C(=O)C(OC)c3ccc(-c4nnn(C)n4)cc3)o2)cc(OC)c1Br (centres unmarked) [Compound 33-1, 1-(5-(4-Bromo-3,5-Dimethoxyphenyl)Furan-2-Yl)-2-Methoxy-2-(4-(2-Methyl-2H-Tetrazol-5-Yl)Phenyl)Ethanone]	≤ 1 µM
COc1cc(-c2ccc(C(=O)C(OC)c3ccc(-n4ccnn4)cc3)o2)cc(OC)c1Br (centres unmarked) [Compound 31-1, 2-(4-(1H-1,2,3-Triazol-1-Yl)Phenyl)-1-(5-(4-Bromo-3,5-Dimethoxyphenyl)Furan-2-Yl)-2-Methoxyethanone]	≤ 1 µM
COc1cc(-c2ccc(C(=O)C(OCC3CC3)c3ccc(N4CCOCC4)cc3)o2)cc(OC)c1Br (centres unmarked) [Compound 41-1, 1-(5-(4-Bromo-3,5-Dimethoxyphenyl)Furan-2-Yl)-2-(Cyclopropylmethoxy)-2-(4-Morpholinophenyl)Ethanone]	≤ 1 µM
COc1cc(-c2coc(C(=O)C(OC)c3ccc(-n4cc(C)cn4)cc3)n2)cc(OC)c1Br (centres unmarked) [Compound 65-6]	≤ 1 µM
CCOC(C(=O)c1ccc(-c2cc(OC)c(OC)c(OC)c2)o1)c1ccc(-c2nnc(C)o2)cc1 (centres unmarked) [Compound 46-1, 2-Ethoxy-2-(4-(5-Methyl-1,3,4-Oxadiazol-2-Yl)Phenyl)-1-(5-(3,4,5-Trimethoxyphenyl)Furan-2-Yl)Ethanone]	≤ 1 µM
COc1cc(-c2ccc(C(=O)C(OC)c3ccc(-n4cccn4)cc3)o2)cc(OC)c1OC (centres unmarked) [Compound 65-9]	≤ 1 µM
COc1cc(-c2coc(C(=O)C(OC)c3ccc(N4CCCC4)cc3)n2)cc(OC)c1Br (centres unmarked) [Compound 7-1, 1-(4-(4-Bromo-3,5-Dimethoxyphenyl)Oxazol-2-Yl)-2-Methoxy-2-(4-(Pyrrolidin-1-Yl)Phenyl)Ethanone]	≤ 1 µM
COc1cc(-c2ccc(C(=O)C(OC)c3ccc(-c4ccc(C)o4)cc3)o2)cc(OC)c1Br (centres unmarked) [Compound 16-1, 1-(5-(4-Bromo-3,5-Dimethoxyphenyl)Furan-2-Yl)-2-Methoxy-2-(4-(5-Methylfuran-2-Yl)Phenyl)Ethanone]	≤ 1 µM

SMILES	IC50
COc1cc(-c2ccc(C(=O)C(OC)c3ccc(-n4cccn4)cc3)o2)cc(OC)c1Br (centres unmarked) [Compound 14-1, 2-(4-(1H-Pyrazol-1-Yl)Phenyl)-1-(5-(4-Bromo-3,5-Dimethoxyphenyl)Furan-2-Yl)-2-Methoxyethanone]	≤ 1 µM
COc1cc(-c2ccc(C(=O)C(OC)c3ccc(N4CCCS4(=O)=O)cc3)o2)cc(OC)c1Br (centres unmarked) [Compound 19-1, 1-(5-(4-Bromo-3,5-Dimethoxyphenyl)Furan-2-Yl)-2-(4-(1,1-Dioxidoisothiazolidin-2-Yl)Phenyl)-2-Methoxyethanone]	≤ 1 µM
CCc1nnc(-c2ccc(C(OC)C(=O)c3ccc(-c4cc(OC)c(Br)c(OC)c4)o3)cc2)o1 (centres unmarked) [Compound 18-1, 1-(5-(4-Bromo-3,5-Dimethoxyphenyl)Furan-2-Yl)-2-(4-(5-Ethyl-1,3,4-Oxadiazol-2-Yl)Phenyl)-2-Methoxyethanone]	≤ 1 µM
COc1cc(-c2csc(C(=O)C(OC)c3ccc(-n4cccn4)cc3)n2)cc(OC)c1Br (centres unmarked) [Compound 3-1, 2-(4-(1H-Pyrazol-1-Yl)Phenyl)-1-(4-(4-Bromo-3,5-Dimethoxyphenyl)Thiazol-2-Yl)-2-Methoxyethanone]	≤ 1 µM
COc1cc(-c2ccc(C(=O)C(OC)c3ccc(N4CCOCC4)cc3)o2)cc(OC)c1Br (centres unmarked) [Compound 12-1, 1-(5-(4-Bromo-3,5-Dimethoxyphenyl)Furan-2-Yl)-2-Methoxy-2-(4-Morpholinophenyl)Ethanone]	≤ 1 µM
COc1ccc(C(OC)C(=O)c2ccc(-c3cc(OC)c(Br)c(OC)c3)o2)cn1 (centres unmarked) [Compound 42-1, 1-(5-(4-Bromo-3,5-Dimethoxyphenyl)Furan-2-Yl)-2-Methoxy-2-(6-Methoxypyridin-3-Yl)Ethanone]	≤ 1 µM
CCOc1c(OC)cc(-c2ccc(C(=O)C(OC)c3ccc(N4CCOCC4)cc3)o2)cc1OC (centres unmarked) [Compound 29-1, 1-(5-(4-Ethoxy-3,5-Dimethoxyphenyl)Furan-2-Yl)-2-Methoxy-2-(4-Morpholinophenyl)Ethanone]	≤ 1 µM
COc1cc(-c2ccc(C(=O)C(OC)c3ccc(-c4nnc(C5CC5)o4)cc3)o2)cc(OC)c1OC (centres unmarked) [Compound 60-1, 2-(4-(5-Cyclopropyl-1,3,4-Oxadiazol-2-Yl)Phenyl)-2-Methoxy-1-(5-(3,4,5-Trimethoxyphenyl)Furan-2-Yl)Ethanone]	≤ 1 µM
COc1cc(-c2ccc(C(=O)C(OC)c3ccc(-c4nnc(C)o4)cc3)s2)cc(OC)c1Br (centres unmarked) [Compound 57-1, 1-(5-(4-Bromo-3,5-Dimethoxyphenyl)Thiophen-2-Yl)-2-Methoxy-2-(4-(5-Methyl-1,3,4-Oxadiazol-2-Yl)Phenyl)Ethanone]	≤ 1 µM
COc1cc(-c2ccc(C(=O)C(OC)c3ccc(N4CCCCC4)nc3)o2)cc(OC)c1Br (centres unmarked) [Compound 23-1, 1-(5-(4-Bromo-3,5-Dimethoxyphenyl)Furan-2-Yl)-2-Methoxy-2-(6-(Piperidin-1-Yl)Pyridin-3-Yl)Ethanone]	≤ 1 µM
CCOC(C(=O)c1ccc(-c2cc(OC)c(Cl)c(OC)c2)o1)c1ccc(N2CCOCC2)cc1 (centres unmarked) [Compound 64-1, 1-(5-(4-Chloro-3,5-Dimethoxyphenyl)Furan-2-Yl)-2-Ethoxy-2-(4-Morpholinophenyl)Ethanone]	≤ 1 µM
COc1cc(-c2ccc(C(=O)C(OC)c3ccc(-c4nnc(C)o4)cc3)o2)cc(Cl)c1OC (centres unmarked) [Compound 40-1, 1-(5-(3-Chloro-4,5-Dimethoxyphenyl)Furan-2-Yl)-2-Methoxy-2-(4-(5-Methyl-1,3,4-Oxadiazol-2-Yl)Phenyl)Ethanone]	≤ 1 µM
COc1cc(-c2coc(C(=O)C(OC)c3ccc(-n4ccnn4)cc3)n2)cc(OC)c1Br (centres unmarked) [Compound 65-4]	≤ 1 µM
COc1cc(-c2coc(C(=O)C(OC)c3cnc4ccccc4c3)n2)cc(OC)c1Br (centres unmarked) [Compound 10-1, 1-(4-(4-Bromo-3,5-Dimethoxyphenyl)Oxazol-2-Yl)-2-Methoxy-2-(Quinolin-3-Yl)Ethanone]	≤ 1 µM
COc1cc(-c2coc(C(=O)C(OC)c3cccc4ncccc34)n2)cc(OC)c1Br (centres unmarked) [Compound 9-1, 1-(4-(4-Bromo-3,5-Dimethoxyphenyl)Oxazol-2-Yl)-2-Methoxy-2-(Quinolin-5-Yl)Ethanone]	≤ 1 µM
COc1cc(-c2ccc(C(=O)C(OC)c3ccc(-n4cncn4)cc3)o2)cc(OC)c1Br (centres unmarked) [Compound 32-1, 2-(4-(1H-1,2,4-Triazol-1-Yl)Phenyl)-1-(5-(4-Bromo-3,5-Dimethoxyphenyl)Furan-2-Yl)-2-Methoxyethanone]	≤ 1 µM
